Assay results from ChEMBL document CHEMBL4033677, “Design and synthesis of pyrazolo[3,4-d]pyrimidines: Nitric oxide releasing compounds targeting hepatocellular carcinoma” (Bioorg Med Chem, 2017).

Assays:
Type in all cases: functional
HL-60(TB) = assay: Growth inhibition of human HL-60(TB) cells assessed as cell growth at 10^-5 M incubated for 48 hrs by sulforhodamine B assay relative to control; details: HL-60, 48 h, read-out: Activity
K562 = assay: Growth inhibition of human K562 cells assessed as cell growth at 10^-5 M incubated for 48 hrs by sulforhodamine B assay relative to control; details: K562, 48 h, read-out: Activity
EKVX = assay: Growth inhibition of human EKVX cells assessed as cell growth at 10^-5 M incubated for 48 hrs by sulforhodamine B assay relative to control; details: read-out: Activity
NCI-H226 = assay: Growth inhibition of human NCI-H226 cells assessed as cell growth at 10^-5 M incubated for 48 hrs by sulforhodamine B assay relative to control; details: NCI-H226, 48 h, read-out: Activity
NCI-H460 = assay: Growth inhibition of human NCI-H460 cells assessed as cell growth at 10^-5 M incubated for 48 hrs by sulforhodamine B assay relative to control; details: NCI-H460, 48 h, read-out: Activity
NCI-H522 = assay: Growth inhibition of human NCI-H522 cells assessed as cell growth at 10^-5 M incubated for 48 hrs by sulforhodamine B assay relative to control; details: NCI-H522, 48 h, read-out: Activity
COLO 205 = assay: Growth inhibition of human COLO205 cells assessed as cell growth at 10^-5 M incubated for 48 hrs by sulforhodamine B assay relative to control; details: COLO 205, 48 h, read-out: Activity
HT-29 = assay: Growth inhibition of human HT-29 cells assessed as cell growth at 10^-5 M incubated for 48 hrs by sulforhodamine B assay relative to control; details: HT-29, 48 h, read-out: Activity
KM12 = assay: Growth inhibition of human KM12 cells assessed as cell growth at 10^-5 M incubated for 48 hrs by sulforhodamine B assay relative to control; details: KM12, 48 h, read-out: Activity
SW-620 = assay: Growth inhibition of human SW620 cells assessed as cell growth at 10^-5 M incubated for 48 hrs by sulforhodamine B assay relative to control; details: SW-620, 48 h, read-out: Activity
SF-539 = assay: Growth inhibition of human SF539 cells assessed as cell growth at 10^-5 M incubated for 48 hrs by sulforhodamine B assay relative to control; details: SF-539, 48 h, read-out: Activity
SNB-75 = assay: Growth inhibition of human SNB75 cells assessed as cell growth at 10^-5 M incubated for 48 hrs by sulforhodamine B assay relative to control; details: SNB-75, 48 h, read-out: Activity
U-251 = assay: Growth inhibition of human U251 cells assessed as cell growth at 10^-5 M incubated for 48 hrs by sulforhodamine B assay relative to control; details: U-251, 48 h, read-out: Activity
LOX IMVI = assay: Growth inhibition of human LOXIMVI cells assessed as cell growth at 10^-5 M incubated for 48 hrs by sulforhodamine B assay relative to control; details: read-out: Activity
Malme-3M = assay: Growth inhibition of human MALME-3M cells assessed as cell growth at 10^-5 M incubated for 48 hrs by sulforhodamine B assay relative to control; details: read-out: Activity
M14 = assay: Growth inhibition of human M14 cells assessed as cell growth at 10^-5 M incubated for 48 hrs by sulforhodamine B assay relative to control; details: M14, 48 h, read-out: Activity
SK-MEL-28 = assay: Growth inhibition of human SK-MEL-28 cells assessed as cell growth at 10^-5 M incubated for 48 hrs by sulforhodamine B assay relative to control; details: SK-MEL-28, 48 h, read-out: Activity
SK-MEL-5 = assay: Growth inhibition of human SK-MEL-5 cells assessed as cell growth at 10^-5 M incubated for 48 hrs by sulforhodamine B assay relative to control; details: SK-MEL-5, 48 h, read-out: Activity
UACC-257 = assay: Growth inhibition of human UACC257 cells assessed as cell growth at 10^-5 M incubated for 48 hrs by sulforhodamine B assay relative to control; details: UACC-257, 48 h, read-out: Activity
IGROV-1 = assay: Growth inhibition of human IGROV1 cells assessed as cell growth at 10^-5 M incubated for 48 hrs by sulforhodamine B assay relative to control; details: IGROV-1, 48 h, read-out: Activity
OVCAR-5 = assay: Growth inhibition of human OVCAR5 cells assessed as cell growth at 10^-5 M incubated for 48 hrs by sulforhodamine B assay relative to control; details: OVCAR-5, 48 h, read-out: Activity
OVCAR-8 = assay: Growth inhibition of human OVCAR8 cells assessed as cell growth at 10^-5 M incubated for 48 hrs by sulforhodamine B assay relative to control; details: OVCAR-8, 48 h, read-out: Activity
SK-OV-3 = assay: Growth inhibition of human SKOV3 cells assessed as cell growth at 10^-5 M incubated for 48 hrs by sulforhodamine B assay relative to control; details: SK-OV-3, 48 h, read-out: Activity
786-0 = assay: Growth inhibition of human 786-0 cells assessed as cell growth at 10^-5 M incubated for 48 hrs by sulforhodamine B assay relative to control; details: 786-0, 48 h, read-out: Activity
CAKI-1 = assay: Growth inhibition of human Caki1 cells assessed as cell growth at 10^-5 M incubated for 48 hrs by sulforhodamine B assay relative to control; details: CAKI-1, 48 h, read-out: Activity
SN12C = assay: Growth inhibition of human SN12C cells assessed as cell growth at 10^-5 M incubated for 48 hrs by sulforhodamine B assay relative to control; details: read-out: Activity
TK-10 = assay: Growth inhibition of human TK10 cells assessed as cell growth at 10^-5 M incubated for 48 hrs by sulforhodamine B assay relative to control; details: TK-10, 48 h, read-out: Activity
UO-31 = assay: Growth inhibition of human UO31 cells assessed as cell growth at 10^-5 M incubated for 48 hrs by sulforhodamine B assay relative to control; details: UO-31, 48 h, read-out: Activity
DU-145 = assay: Growth inhibition of human DU145 cells assessed as cell growth at 10^-5 M incubated for 48 hrs by sulforhodamine B assay relative to control; details: DU-145, 48 h, read-out: Activity
Hs-578T = assay: Growth inhibition of human Hs 578T cells assessed as cell growth at 10^-5 M incubated for 48 hrs by sulforhodamine B assay relative to control; details: read-out: Activity
BT-549 = assay: Growth inhibition of human BT549 cells assessed as cell growth at 10^-5 M incubated for 48 hrs by sulforhodamine B assay relative to control; details: BT-549, 48 h, read-out: Activity
MDA-MB-468 = assay: Growth inhibition of human MDA-MB-468 cells assessed as cell growth at 10^-5 M incubated for 48 hrs by sulforhodamine B assay relative to control; details: MDA-MB-468, 48 h, read-out: Activity

Row | SMILES | growth at 10 µM (HL-60(TB)) [%] | growth at 10 µM (K562) [%] | growth at 10 µM (EKVX) [%] | growth at 10 µM (NCI-H226) [%] | growth at 10 µM (NCI-H460) [%] | growth at 10 µM (NCI-H522) [%] | growth at 10 µM (COLO 205) [%] | growth at 10 µM (HT-29) [%] | growth at 10 µM (KM12) [%] | growth at 10 µM (SW-620) [%] | growth at 10 µM (SF-539) [%] | growth at 10 µM (SNB-75) [%] | growth at 10 µM (U-251) [%] | growth at 10 µM (LOX IMVI) [%] | growth at 10 µM (Malme-3M) [%] | growth at 10 µM (M14) [%] | growth at 10 µM (SK-MEL-28) [%] | growth at 10 µM (SK-MEL-5) [%] | growth at 10 µM (UACC-257) [%] | growth at 10 µM (IGROV-1) [%] | further results
1 | Cc1nc(Nc2ccc(OCCCBr)cc2)c2c(C)nn(-c3ccccc3)c2n1 | 96.2 | 100 | 90.9 | 90 | 113 | 76.1 | 108 | 93.7 | 96.6 | 111 | 98.3 | 105 | 90.5 | 98.3 | 107 | 94 | 105 | 96.1 | 93.3 | 91.8 | growth at 10 µM (OVCAR-5): 91.4%; growth at 10 µM (OVCAR-8): 94.6%; growth at 10 µM (SK-OV-3): 96%; growth at 10 µM (786-0): 83.6%; growth at 10 µM (CAKI-1): 94.8%; growth at 10 µM (SN12C): 78.8%; growth at 10 µM (TK-10): 94.5%; growth at 10 µM (UO-31): 95.7%; growth at 10 µM (DU-145): 109%; growth at 10 µM (Hs-578T): 97.3%; growth at 10 µM (BT-549): 91.6%; growth at 10 µM (MDA-MB-468): 95%
2 | BrCCCOc1ccc(Nc2ncnc3c2cnn3-c2ccccc2)cc1 | 95.8 | 105 | 83.2 | 84.1 | 107 | 78.4 | 103 | 99.4 | 88.9 | 114 | 92.5 | 93.3 | 94.6 | 98.1 | 112 | 100 | 107 | 93 | 109 | 80.5 | growth at 10 µM (OVCAR-5): 104%; growth at 10 µM (OVCAR-8): 92.7%; growth at 10 µM (SK-OV-3): 90.2%; growth at 10 µM (786-0): 106%; growth at 10 µM (CAKI-1): 98.2%; growth at 10 µM (SN12C): 94%; growth at 10 µM (TK-10): 128%; growth at 10 µM (UO-31): 75.8%; growth at 10 µM (DU-145): 108%; growth at 10 µM (Hs-578T): 101%; growth at 10 µM (BT-549): 93.4%; growth at 10 µM (MDA-MB-468): 99.7%
3 | Cc1nn(-c2ccccc2)c2ncnc(Nc3ccc(OCCCBr)cc3)c12 | 104 | 100 | 92.5 | 101 | 123 | 45.6 | 105 | 58.2 | 99.6 | 108 | 96 | 115 | 89 | 106 | 106 | 91.3 | 101 | 86.6 | 84.8 | 105 | growth at 10 µM (OVCAR-5): 103%; growth at 10 µM (OVCAR-8): 94.2%; growth at 10 µM (SK-OV-3): 81%; growth at 10 µM (786-0): 64.3%; growth at 10 µM (CAKI-1): 92.1%; growth at 10 µM (SN12C): 95.2%; growth at 10 µM (TK-10): 89.9%; growth at 10 µM (UO-31): 92.4%; growth at 10 µM (DU-145): 108%; growth at 10 µM (Hs-578T): 111%; growth at 10 µM (BT-549): 97.8%; growth at 10 µM (MDA-MB-468): 95.5%
4 | Cc1nc(Nc2ccc(OCCCBr)cc2)c2cnn(-c3ccccc3)c2n1 | 97.6 | 102 | 76.5 | 81.1 | 95.1 | 81.6 | 106 | 96.6 | 98.3 | 93.3 | 92.5 | 88.7 | 81.4 | 94.6 | 98.2 | 94.5 | 107 | 96.2 | 94.4 | 90.3 | growth at 10 µM (OVCAR-5): 100%; growth at 10 µM (OVCAR-8): 75.7%; growth at 10 µM (SK-OV-3): 82.9%; growth at 10 µM (786-0): 91.6%; growth at 10 µM (CAKI-1): 93.6%; growth at 10 µM (SN12C): 91.8%; growth at 10 µM (TK-10): 113%; growth at 10 µM (UO-31): 88.2%; growth at 10 µM (DU-145): 106%; growth at 10 µM (Hs-578T): 82.6%; growth at 10 µM (BT-549): 92.9%; growth at 10 µM (MDA-MB-468): 98.9%
